Reference: patent US6552077B2, “Albumin-binding compounds that prevent nonenzymatic glycation and that may be used for treatment of glycation-related pathologies” (Exocell, Inc., priority 1996, dated 2003)
Counter-ions that a name gives are not always drawn.

What was measured:
Human albumin [1] = biological target: T1, Human albumin (Homo sapiens, UniProt P02768); assay: Anti-glycation activity of 2-(phenylamino)phenylacetic acids (glycated albumin ELISA); format: biochemical; details: for IC50: human albumin 10 mg/ml, 0-50 mM glucose, 48-144 hours, 37° C., read-out: Glycation Inhibition IC50; for Antiglycation IC50 versus COX Inhibition IC50 (ratio): ratio of glycation IC50 to cyclo-oxygenase IC50
Description: After dialysis to remove free glucose and compound, the amount of glycated albumin formed was determined by enzyme-linked immunosorbent assay using the monoclonal antibodies known to specifically react with Amadori-glucose adducts in glycated albumin and to be unreactive with the nonglycated protein. The presence of glucose in the incubations promotes the nonenzymatic glycation of albumin, and the performance of paired incubations allows comparison of the amount of glycated albumin formed under control (0 glucose), stimulated (25-50 mM glucose), and inhibited (compound plus glucose) conditions.

cyclo-oxygenase = biological target: T2, cyclo-oxygenase (Bos taurus, UniProt O62664); assay: Cyclo-oxygenase inhibition, conversion of arachidonic acid to prostaglandin E2 in bovine seminal vesicle homogenates; format: biochemical; details: arachidonic acid to prostaglandin E2, 1-30 minutes, read-out: COX Inhibition IC50
T2 construct: from tissue; host or cells: bovine seminal vesicles (cellular homogenate)
T2 sequence (O62664 25-600): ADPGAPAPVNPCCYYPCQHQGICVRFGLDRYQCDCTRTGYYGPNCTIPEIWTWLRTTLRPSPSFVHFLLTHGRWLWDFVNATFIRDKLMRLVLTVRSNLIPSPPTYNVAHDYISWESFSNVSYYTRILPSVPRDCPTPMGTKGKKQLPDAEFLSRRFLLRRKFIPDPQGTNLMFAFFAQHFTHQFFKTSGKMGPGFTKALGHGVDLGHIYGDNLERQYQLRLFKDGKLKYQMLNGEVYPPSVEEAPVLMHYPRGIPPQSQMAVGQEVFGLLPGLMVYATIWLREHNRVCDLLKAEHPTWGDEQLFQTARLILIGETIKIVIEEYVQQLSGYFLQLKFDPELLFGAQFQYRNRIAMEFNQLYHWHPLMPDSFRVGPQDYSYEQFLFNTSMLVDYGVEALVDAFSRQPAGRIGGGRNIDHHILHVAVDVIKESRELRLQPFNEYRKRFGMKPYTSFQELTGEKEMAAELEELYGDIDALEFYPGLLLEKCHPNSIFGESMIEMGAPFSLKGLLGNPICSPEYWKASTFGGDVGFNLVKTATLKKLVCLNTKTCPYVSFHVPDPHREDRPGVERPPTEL
Description: Cellular homogenates of bovine seminal vesicles were incubated with arachidonic acid and the production of prostaglandins was monitored.

glycated albumin = biological target: T3, glycated albumin (Mus musculus, UniProt P07724); assay: Prevention of albumin glycation in vivo, plasma glycated albumin by ELISA; details: mice; for Glycated Albumin, Percent change: post vs pre-treatment; for Glycated Albumin, Post-treatment: four hours after last dosing; for Glycated Albumin, Pre-treatment: before treatment
T3 construct: from tissue; host or cells: mouse plasma (in vivo dosing)
Excerpt: Blood was taken before the initiation of treatment and four hours after the last dosing at the conclusion of the treatment.

Human albumin [2] = biological target: T1, Human albumin; assay: Prevention of albumin glycation at physiologically significant sites (ELISA with anti-glycated albumin monoclonal antibody); format: biochemical; details: for IC50: human albumin 10 mg/ml, 40 mM glucose, 4 days, compound 1-1000 μM
Description: The performance of paired incubations allowed comparison of the amount of glycated albumin formed under control (0 mM glucose), stimulated (40 mM glucose) and inhibited (test compound plus glucose) conditions.

Mice = assay: Urine protein excretion after 8 weeks of treatment; format: in vivo
Description: Mice were treated for 8 weeks with 10 mg/kg/day of 2-(3-chlorophenylamino) phenylacetic acid in divided doses. Urine samples were obtained at the initiation and termination of treatment for examination of protein excretion, which measures vascular dysfunction that is associated with glycation-related pathology As shown below, the reduction in glycated albumin was associated with a reduction in urine protein excretion.

[3] = 5 mg/kg/day intraperitoneal for 5 days
[4] = 5 mg/kg/day intraperitoneal in divided doses for 5 days
[5] = 10 mg/kg/day intraperitoneal for 5 days
[6] = 10 mg/kg/day intraperitoneal in divided doses for 5 days

T1 sequence (P02768 25-609): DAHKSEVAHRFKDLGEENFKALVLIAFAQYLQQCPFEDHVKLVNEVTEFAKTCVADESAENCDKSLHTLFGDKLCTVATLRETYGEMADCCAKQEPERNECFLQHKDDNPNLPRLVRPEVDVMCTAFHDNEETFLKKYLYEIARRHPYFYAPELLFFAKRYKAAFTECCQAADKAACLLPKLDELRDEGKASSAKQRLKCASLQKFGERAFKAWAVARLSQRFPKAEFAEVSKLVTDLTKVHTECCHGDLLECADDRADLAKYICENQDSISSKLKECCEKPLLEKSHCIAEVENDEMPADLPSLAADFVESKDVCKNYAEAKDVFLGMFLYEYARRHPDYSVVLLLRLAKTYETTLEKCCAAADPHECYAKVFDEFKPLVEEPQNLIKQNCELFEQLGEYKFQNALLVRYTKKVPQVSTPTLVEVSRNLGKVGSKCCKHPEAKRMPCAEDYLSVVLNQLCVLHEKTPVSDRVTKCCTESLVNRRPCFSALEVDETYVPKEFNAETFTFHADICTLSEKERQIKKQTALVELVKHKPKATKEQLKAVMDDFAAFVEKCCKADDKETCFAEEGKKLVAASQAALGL
T3 sequence (P07724 25-608): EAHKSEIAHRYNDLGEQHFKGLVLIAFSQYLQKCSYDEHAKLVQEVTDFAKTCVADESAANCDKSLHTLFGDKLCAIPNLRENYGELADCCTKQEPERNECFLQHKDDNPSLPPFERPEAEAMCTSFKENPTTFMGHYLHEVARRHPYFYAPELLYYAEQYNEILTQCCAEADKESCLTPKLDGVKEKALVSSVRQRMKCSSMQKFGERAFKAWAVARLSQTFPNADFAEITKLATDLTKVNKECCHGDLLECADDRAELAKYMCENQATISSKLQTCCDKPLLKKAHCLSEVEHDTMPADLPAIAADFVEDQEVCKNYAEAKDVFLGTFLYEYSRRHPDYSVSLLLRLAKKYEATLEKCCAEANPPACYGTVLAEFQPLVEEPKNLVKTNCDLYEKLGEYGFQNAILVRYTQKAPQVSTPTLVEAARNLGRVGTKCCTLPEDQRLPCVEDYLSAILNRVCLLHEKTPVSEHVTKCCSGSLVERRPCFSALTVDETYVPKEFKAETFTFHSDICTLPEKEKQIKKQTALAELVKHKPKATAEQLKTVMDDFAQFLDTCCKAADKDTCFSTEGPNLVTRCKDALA

SMILES	IC50 (Human albumin [1]) [µM]	Antiglycation IC50 versus COX Inhibition IC50 (ratio) (Human albumin [1])	IC50 (cyclo-oxygenase) [µM]	further results
O=C(O)Cc1ccccc1Nc1cccc(Cl)c1 (as salt: salt) [Example 5, 2-[(3-chlorophenyl)amino]phenylacetic acid]	–	–	–	melting point: 102 to 103 °C
O=C(O)Cc1ccccc1Nc1ccccc1 [Example 3, 2-[(phenyl)amino]phenylacetic acid]	155	0.54	288	–
O=C(O)Cc1ccccc1Nc1ccccc1Cl [Example 4, 2-[(2-chlorophenyl)amino]phenylacetic acid]	10	0.24	42	Glycated Albumin, Percent change (glycated albumin; [3]): −32.5%; Glycated Albumin, Post-treatment (glycated albumin; [4]): 500 µg/mL; Glycated Albumin, Percent change (glycated albumin; [5]): −47.7%; Glycated Albumin, Post-treatment (glycated albumin; [6]): 426 µg/mL; Glycated Albumin, Pre-treatment (glycated albumin; 5 mg/kg/day group): 741 µg/mL; Glycated Albumin, Pre-treatment (glycated albumin; 10 mg/kg/day group): 815 µg/mL
O=C(O)Cc1ccccc1Nc1cccc(Cl)c1 [Example 5, 2-[(3-chlorophenyl)amino]phenylacetic acid]	50	0.08	600	ability to prevent glycation of the physiologically important sites (Human albumin [2]; comparison among the compounds of Table 1): greatest ability to prevent glycation; IC50 (Human albumin [2]): 15 µM; Glycated Albumin, Percent change (glycated albumin; [3]): −18.4%; Glycated Albumin, Post-treatment (glycated albumin; [4]): 697 µg/mL; Glycated Albumin, Percent change (glycated albumin; [5]): −45.6%; Glycated Albumin, Post-treatment (glycated albumin; [6]): 352 µg/mL; Glycated Albumin, Pre-treatment (glycated albumin; 5 mg/kg/day group): 854 µg/mL; Glycated Albumin, Pre-treatment (glycated albumin; 10 mg/kg/day group): 647 µg/mL; Urine protein, Termination (Mice; after 8 weeks of 10 mg/kg/day in divided doses): 2.7 μg/24 hrs; Urine protein, Initiation (Mice; at initiation of treatment (baseline)): 7.6 μg/24 hrs
O=C(O)Cc1ccccc1Nc1ccc(Cl)cc1 [Example 6, 2-[(4-chlorophenyl)amino]phenylacetic acid]	11	0.11	98	–
O=C(O)Cc1ccccc1Nc1ccc(Cl)cc1Cl [Example 8, 2-[(2,4-dichlorophenyl)amino]phenylacetic acid]	63	0.90	71	–
O=C(O)Cc1ccccc1Nc1ccc(Cl)c(Cl)c1 [Example 11, 2-[(3,4-dichlorophenyl)amino]phenylacetic acid]	2.5	0.02	141	–
Cc1cccc(C)c1Nc1ccccc1CC(=O)O [Example 13, 2-[(2,6-dimethylphenyl)amino]phenylacetic Acid]	112	19.0	6	–
CC1=C(CC(=O)O)c2cc(F)ccc2/C1=C\c1ccc([S+](C)[O-])cc1 (stereo not drawn) [[Z]-5-fluoro-2-methyl-1 [p-(methylsulfinyl)phenyl] (methylene-1H-indene-3-acetic acid, reference compound]	–	–	–	IC50 (Human albumin [2]): 22000 µM
